Results published in ChEMBL document CHEMBL4265944, “Novel amide derivatives of 1,3-dimethyl-2,6-dioxopurin-7-yl-alkylcarboxylic acids as multifunctional TRPA1 antagonists and PDE4/7 inhibitors: A new approach for the treatment of pain” (Eur J Med Chem, 2018).
pIC50: −log10 of the molar value. Activity calls are given as the source filed them. The calls are words filed in the database; no cut-off is given here.

Key:
[1] = Plasma concentration in Wistar rat model of LPS-induced inflammation at 50 mg/kg, ip measured at 1.5 hrs post dose by HPLC method; format: ADME, organism-based
[2] = Plasma concentration in Wistar rat model of LPS-induced inflammation at 50 mg/kg, ip measured at 2 hrs post dose by HPLC method; format: ADME, organism-based
[3] = tested on: Rattus norvegicus; assay: Antiallodynic activity in Wistar rat assessed as reduction in oxaliplatin-induced neuropathic pain in early phase by measuring paw withdrawal force at 10 mg/kg, ip measured after 60 mins by Von Frey test; format: functional, organism-based
[4] = tested on: Rattus norvegicus; assay: Anti-inflammatory activity in Wistar rat assessed as inhibition of carrageenan-induced paw edema at 20 mg/kg, ip measured at 1 hr post dose relative to control; format: functional
[5] = tested on: Rattus norvegicus; assay: Anti-inflammatory activity in Wistar rat assessed as inhibition of carrageenan-induced paw edema at 20 mg/kg, ip measured at 3 hrs post dose relative to control; format: functional
[6] = target: Transient receptor potential cation channel subfamily A member 1 (Homo sapiens) (UniProt O75762); assay: Antagonist activity at human TRPA1 expressed in HEK293 cells assessed as decrease in flufenamic acid-evoked increase in intracellular calcium level at 100 uM measured for 180 secs with 1 sec interval by Fluo4-AM dye-based fluorescence assay relative to control; format: cell-based
Transient receptor potential cation channel subfamily A member 1 (Homo sapiens), sequence (O75762 whole entry): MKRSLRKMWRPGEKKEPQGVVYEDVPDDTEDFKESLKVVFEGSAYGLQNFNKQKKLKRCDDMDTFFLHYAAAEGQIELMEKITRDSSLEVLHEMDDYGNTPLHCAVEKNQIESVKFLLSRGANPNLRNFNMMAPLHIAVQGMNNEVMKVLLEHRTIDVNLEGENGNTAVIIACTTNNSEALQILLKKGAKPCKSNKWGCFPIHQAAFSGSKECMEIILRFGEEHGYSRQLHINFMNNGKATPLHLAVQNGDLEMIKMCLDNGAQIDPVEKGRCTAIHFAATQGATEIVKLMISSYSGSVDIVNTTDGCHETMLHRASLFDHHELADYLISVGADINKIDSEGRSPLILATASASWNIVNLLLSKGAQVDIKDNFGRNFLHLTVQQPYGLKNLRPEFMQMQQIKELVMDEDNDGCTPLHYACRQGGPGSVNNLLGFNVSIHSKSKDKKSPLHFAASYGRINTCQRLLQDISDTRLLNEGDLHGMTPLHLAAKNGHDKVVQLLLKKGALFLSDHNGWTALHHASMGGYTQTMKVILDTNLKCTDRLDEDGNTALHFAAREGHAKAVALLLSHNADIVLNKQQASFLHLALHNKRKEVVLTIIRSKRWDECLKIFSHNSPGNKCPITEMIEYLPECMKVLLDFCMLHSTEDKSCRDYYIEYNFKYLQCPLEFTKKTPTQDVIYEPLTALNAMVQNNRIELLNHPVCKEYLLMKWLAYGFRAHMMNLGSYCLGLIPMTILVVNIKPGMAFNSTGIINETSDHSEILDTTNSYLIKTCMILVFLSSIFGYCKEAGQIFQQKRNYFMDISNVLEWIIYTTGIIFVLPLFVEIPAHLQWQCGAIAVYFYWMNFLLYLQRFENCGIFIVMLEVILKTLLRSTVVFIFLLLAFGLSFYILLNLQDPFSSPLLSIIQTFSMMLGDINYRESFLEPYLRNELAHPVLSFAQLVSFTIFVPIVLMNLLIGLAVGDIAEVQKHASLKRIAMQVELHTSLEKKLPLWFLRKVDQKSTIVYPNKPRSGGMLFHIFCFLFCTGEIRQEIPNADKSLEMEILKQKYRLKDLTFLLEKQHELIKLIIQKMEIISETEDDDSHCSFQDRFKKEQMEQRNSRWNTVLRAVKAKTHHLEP

[7] = target: High affinity 3',5'-cyclic-AMP phosphodiesterase 7A (Homo sapiens, UniProt Q13946); assay: Inhibition of recombinant human PDE7A using cAMP as substrate after 10 mins by PDE-Glo Phosphodiesterase Assay
High affinity 3',5'-cyclic-AMP phosphodiesterase 7A, sequence (Q13946 whole entry): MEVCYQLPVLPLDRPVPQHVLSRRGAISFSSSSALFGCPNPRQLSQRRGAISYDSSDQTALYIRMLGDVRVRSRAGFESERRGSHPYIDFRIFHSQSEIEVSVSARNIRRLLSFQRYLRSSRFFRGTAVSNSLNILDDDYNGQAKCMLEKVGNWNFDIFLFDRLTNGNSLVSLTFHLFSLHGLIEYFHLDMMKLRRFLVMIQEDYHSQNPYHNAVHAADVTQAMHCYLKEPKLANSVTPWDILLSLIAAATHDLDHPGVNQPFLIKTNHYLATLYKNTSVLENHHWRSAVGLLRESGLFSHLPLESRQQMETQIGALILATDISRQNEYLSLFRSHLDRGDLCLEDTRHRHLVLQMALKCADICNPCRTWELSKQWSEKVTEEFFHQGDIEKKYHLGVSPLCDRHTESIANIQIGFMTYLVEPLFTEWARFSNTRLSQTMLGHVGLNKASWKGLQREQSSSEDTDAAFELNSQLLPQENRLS

[8] = target: Transient receptor potential cation channel subfamily A member 1 (Homo sapiens) (UniProt O75762); assay: Antagonist activity at human TRPA1 expressed in HEK293 cells assessed as decrease in flufenamic acid-evoked increase in intracellular calcium level at 1 uM measured for 180 secs with 1 sec interval by Fluo4-AM dye-based fluorescence assay relative to control; format: cell-based
[9] = tested on: Mus musculus; assay: Antiinflammatory activity in formalin-induced nociception Swiss CD-1 mouse model assessed as time spent on licking or biting formalin injected right hind paw during neurogenic phase at 5 mg/kg, ip measured during phase 1 (reference value: 33 +/- 1.45 sec); format: functional
[10] = tested on: Rattus norvegicus; assay: Antiallodynic activity in Wistar rat assessed as reduction in oxaliplatin-induced neuropathic pain in early phase by measuring paw withdrawal latency time at 1 to 10 mg/kg, ip measured after 60 secs by cold plate test; format: functional, organism-based
[11] = tested on: Rattus norvegicus; assay: Antiinflammatory activity in Wistar rat assessed as inhibition of LPS-induced TNF-alpha level at 50 mg/kg, ip measured at 2 hrs post dose by ELISA relative to control; format: functional
[12] = Plasma concentration in Wistar rat model of LPS-induced inflammation at 50 mg/kg, ip measured at 1 hr post dose by HPLC method; format: ADME, organism-based
[13] = tested on: Rattus norvegicus; assay: Antiallodynic activity in Wistar rat assessed as reduction in oxaliplatin-induced neuropathic pain in late phase by measuring paw withdrawal latency time at 1 to 10 mg/kg, ip measured after 60 secs by cold plate test; format: functional, organism-based
[14] = tested on: Mus musculus; assay: Antiinflammatory activity in formalin-induced nociception Swiss CD-1 mouse model assessed as time spent on licking or biting formalin injected right hind paw during neurogenic phase at 10 mg/kg, ip measured during phase 1 (reference value: 33 +/- 1.45 sec); format: functional
[15] = tested on: Rattus norvegicus; assay: Anti-inflammatory activity in Wistar rat assessed as inhibition of carrageenan-induced paw edema at 20 mg/kg, ip measured at 2 hrs post dose relative to control; format: functional
[16] = tested on: Mus musculus; assay: Antiinflammatory activity in formalin-induced nociception Swiss CD-1 mouse model assessed as time spent on licking or biting formalin injected right hind paw during neurogenic phase at 2.5 mg/kg, ip measured during phase 1 (reference value: 33 +/- 1.45 sec); format: functional
[17] = tested on: Mus musculus; assay: Antiinflammatory activity in formalin-induced nociception Swiss CD-1 mouse model assessed as time spent on licking or biting formalin injected right hind paw during […] phase at 2.5 mg/kg, ip measured during phase 2 (reference value: 83.63 +/- 12.98 sec); format: functional
[18] = target: Transient receptor potential cation channel subfamily A member 1 (Homo sapiens) (UniProt O75762); assay: Antagonist activity at human TRPA1 expressed in HEK293 cells assessed as decrease in flufenamic acid-evoked increase in intracellular calcium level at 10 uM measured for 180 secs with 1 sec interval by Fluo4-AM dye-based fluorescence assay relative to control; format: cell-based
[19] = tested on: Mus musculus; assay: Potency index, ratio of ED50 for HC-030031 to test compound ED50 for formalin-induced nociception ip dosed Swiss CD-1 mouse model assessed as time spent on licking or biting formalin injected right hind paw […] measured during phase 2; format: functional
[20] = target: 3',5'-cyclic-AMP phosphodiesterase 4B (Homo sapiens, UniProt Q07343); assay: Inhibition of recombinant human PDE4B using cAMP as substrate after 10 mins by PDE-Glo Phosphodiesterase Assay
3',5'-cyclic-AMP phosphodiesterase 4B, sequence (Q07343 whole entry): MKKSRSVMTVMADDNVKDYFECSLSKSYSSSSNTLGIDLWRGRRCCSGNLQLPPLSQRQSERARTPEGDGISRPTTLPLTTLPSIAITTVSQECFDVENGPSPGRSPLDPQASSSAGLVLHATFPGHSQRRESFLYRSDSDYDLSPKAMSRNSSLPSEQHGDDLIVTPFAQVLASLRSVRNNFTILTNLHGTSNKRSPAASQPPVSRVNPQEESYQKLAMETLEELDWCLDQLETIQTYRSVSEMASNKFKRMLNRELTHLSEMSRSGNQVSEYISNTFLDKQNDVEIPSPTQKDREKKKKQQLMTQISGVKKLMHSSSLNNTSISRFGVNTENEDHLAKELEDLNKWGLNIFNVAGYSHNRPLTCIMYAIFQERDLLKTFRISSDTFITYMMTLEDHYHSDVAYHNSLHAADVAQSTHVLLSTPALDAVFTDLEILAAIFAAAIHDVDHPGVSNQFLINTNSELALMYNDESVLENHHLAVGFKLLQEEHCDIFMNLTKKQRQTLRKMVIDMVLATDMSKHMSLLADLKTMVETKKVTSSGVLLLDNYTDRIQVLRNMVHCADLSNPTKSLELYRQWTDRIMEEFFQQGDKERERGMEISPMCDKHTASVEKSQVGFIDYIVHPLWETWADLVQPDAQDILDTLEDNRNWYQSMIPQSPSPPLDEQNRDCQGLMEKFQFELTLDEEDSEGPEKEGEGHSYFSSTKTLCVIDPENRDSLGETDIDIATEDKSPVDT

[21] = tested on: Mus musculus; assay: Antiinflammatory activity in formalin-induced nociception ip dosed Swiss CD-1 mouse model assessed as time spent on licking or biting formalin injected right hind paw […] measured during phase 2; format: functional; conditions: Swiss CD-1, ip
[22] = tested on: Rattus norvegicus; assay: Antiinflammatory activity in Wistar rat assessed as inhibition of LPS-induced TNF-alpha level at 50 mg/kg, ip measured at 1 hr post dose by ELISA relative to control; format: functional
[23] = tested on: Rattus norvegicus; assay: Antiinflammatory activity in Wistar rat assessed as inhibition of LPS-induced TNF-alpha level at 50 mg/kg, ip measured at 1.5 hrs post dose by ELISA relative to control; format: functional
[24] = tested on: Mus musculus; assay: Antiinflammatory activity in formalin-induced nociception Swiss CD-1 mouse model assessed as time spent on licking or biting formalin injected right hind paw […] at 5 mg/kg, ip measured during phase 2 (reference value: 83.63 +/- 12.98 sec); format: functional
[25] = tested on: Rattus norvegicus; assay: Antiinflammatory activity in Wistar rat assessed as inhibition of LPS-induced TNF-alpha level at 50 mg/kg, ip measured at 1 to 2 hrs post dose by ELISA relative to control; format: functional
[26] = tested on: Mus musculus; assay: Antiinflammatory activity in formalin-induced nociception Swiss CD-1 mouse model assessed as time spent on licking or biting formalin injected right hind paw during […] phase at 2.5 mg/kg, ip measured during phase 2 (reference value: 143.60 sec); format: functional
[27] = tested on: Rattus norvegicus; assay: Antiallodynic activity in Wistar rat assessed as reduction in oxaliplatin-induced neuropathic pain in late phase by measuring paw withdrawal latency time at 1 mg/kg, ip measured after 60 secs by cold plate test; format: functional, organism-based
[28] = tested on: Rattus norvegicus; assay: Antiallodynic activity in Wistar rat assessed as reduction in oxaliplatin-induced neuropathic pain in early phase by measuring paw withdrawal force at 5 to 10 mg/kg, ip measured after 60 mins by Von Frey test; format: functional, organism-based
[29] = tested on: Mus musculus; assay: Antiinflammatory activity in formalin-induced nociception Swiss CD-1 mouse model assessed as time spent on licking or biting formalin injected right hind paw […] at 5 mg/kg, ip measured during phase 2 (reference value: 143.60 sec); format: functional
[30] = tested on: Mus musculus; assay: Antiinflammatory activity in formalin-induced nociception Swiss CD-1 mouse model assessed as time spent on licking or biting formalin injected right hind paw during neurogenic phase at 2.5 mg/kg, ip measured during phase 1 (reference value: 75.50 +/- 6.86 sec); format: functional
[31] = tested on: Mus musculus; assay: Antiinflammatory activity in formalin-induced nociception Swiss CD-1 mouse model assessed as time spent on licking or biting formalin injected right hind paw during neurogenic phase at 10 mg/kg, ip measured during phase 1 (reference value: 75.50 +/- 6.86 sec); format: functional
[32] = tested on: Mus musculus; assay: Antiinflammatory activity in formalin-induced nociception Swiss CD-1 mouse model assessed as time spent on licking or biting formalin injected right hind paw during […] phase at 10 mg/kg, ip measured during phase 2 (reference value: 143.60 sec); format: functional
[33] = tested on: Rattus norvegicus; assay: Antiallodynic activity in Wistar rat assessed as reduction in oxaliplatin-induced neuropathic pain in early phase by measuring paw withdrawal force at 1 mg/kg, ip measured after 60 mins by Von Frey test; format: functional, organism-based
[34] = tested on: Rattus norvegicus; assay: Antiallodynic activity in Wistar rat assessed as reduction in oxaliplatin-induced neuropathic pain in late phase by measuring paw withdrawal force at 10 mg/kg, ip measured after 60 mins by Von Frey test; format: functional, organism-based
[35] = tested on: Mus musculus; assay: Antiinflammatory activity in formalin-induced nociception Swiss CD-1 mouse model assessed as time spent on licking or biting formalin injected right hind paw during neurogenic phase at 5 mg/kg, ip measured during phase 1 (reference value: 75.50 +/- 6.86 sec); format: functional
[36] = tested on: Rattus norvegicus; assay: Antiallodynic activity in Wistar rat assessed as reduction in oxaliplatin-induced neuropathic pain in late phase by measuring paw withdrawal latency time at 5 mg/kg, ip measured after 60 secs by cold plate test; format: functional, organism-based
[37] = tested on: Mus musculus; assay: Antiinflammatory activity in formalin-induced nociception Swiss CD-1 mouse model assessed as time spent on licking or biting formalin injected right hind paw during […] phase at 10 mg/kg, ip measured during phase 2 (reference value: 83.63 +/- 12.98 sec); format: functional

Row | Structure (SMILES) | concentration at 1.5 h [1] [µM] | concentration at 2 h [2] [µM] | Activity [3] | inhibition in vivo at 20 mg/kg [4] [%] | inhibition in vivo at 20 mg/kg [5] [%] | inhibition [6] [%] | pIC50 [7] | inhibition [8] [%] | Time [9] [s] | concentration at 1 h [12] [µM] | Time [14] [s] | inhibition in vivo at 20 mg/kg [15] [%] | Time [16] [s] | Time [17] [s] | inhibition [18] [%] | Ratio ED50 [19] | pIC50 [20] | ED50 [21] [mg/kg] | Time [24] [s] | Activity [27] | further results
1 | CCCCOc1nc2c(c(=O)n(C)c(=O)n2C)n1CCCC(=O)Nc1cc(C(C)(C)C)ccc1O | 0.74 | 0.29 | Active | 48 | 33.5 | 39 | 5.29 | 6 | 25.17 | 1.98 | 21.33 | 79.7 | 32 | 47.67 | 7 | 10 - 13 | 5.27 | 3.44 | 49.17 | – | Activity [10]: Active; inhibition in vivo at 50 mg/kg [11]: 92%; Activity [13]: Active; inhibition in vivo at 50 mg/kg [22]: 85.4%; inhibition in vivo at 50 mg/kg [23]: 90.2%
2 | COc1nc2c(c(=O)n(C)c(=O)n2C)n1CC(=O)Nc1ccc(C(C)(C)C)cc1 | 2.33 | 1.95 | – | 37.1 | 30.6 | 53 | < 3.70 | 40 | – | 2.68 | – | 18.7 | – | – | 40 | 10 - 13 | < 3.70 | 2.49 | – | Active | inhibition in vivo at 50 mg/kg [25]: 33 to 44%; Time [26]: 72.6 s; Activity [28]: Active; Time [29]: 48 s; Time [30]: 69 s; Time [31]: 65.17 s; Time [32]: 31.67 s; Activity [33]: inactive; Activity [34]: Active; Time [35]: 86.33 s; Activity [36]: Active
3 | CCOc1nc2c(c(=O)n(C)c(=O)n2C)n1CC(=O)Nc1ccc(C(C)(C)C)cc1 | 2.59 | 2.25 | Active | 60.5 | 50.1 | 59 | < 3.70 | 10 | 30.83 | 3.75 | 32.17 | 54.3 | 32 | 46 | 47 | 10 - 13 | < 3.70 | 2.57 | 16.33 | Active | inhibition [25]: inactive; Activity [34]: Active; Time [37]: 9.67 s
